Entries after “also recorded” stand apart in the source; their conditions may differ. Where a name gives a salt, the structure may show the parent alone.
Tests used:
Assay type in all cases: physicochemical
[1] = Solubility of salts in water and in 0.2 M phosphate buffer pH 6 at 37° C. after 4 hours (HPLC-DAD); conditions: for Dissolution behaviour in aqueous media (gelling, wettability): salt screen, water and/or 0.2 M phosphate buffer pH 6; for pH (4 h): pH at end of equilibration
Outline: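 About 5 mg of salt received 200 μL aliquots of water or 0.2 M phosphate buffer pH 6, up to 1 mL, and was stirred at 37 °C for 4 h. After centrifugation and 0.2 […] PTFE filtration, dissolved concentration was determined by HPLC-DAD against voruciclib calibration, and final pH was recorded.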

[2] = Qualitative solubility determination in water at room temperature, with observation of gel formation; conditions: for Behaviour upon addition of water (gel formation): small amount of water added to solid
Procedure: The aqueous solubility of Oxa2 (starting material) was assessed by the qualitative solubility determination approach. To 5.4 mg of Oxa2, water was added in steps of 50 μl until the material was dissolved (Exp. ID: SAS1). Visual inspection by the naked eye was used to decide whether complete dissolution occurred.
After the addition of 7.5 ml water, Oxa2 was not dissolved in water at room temperature. The suspension was heated to 50° C. upon which complete dissolution occurred, as indicated by a clear solution.
The aqueous solubility of Pho1 (Exp. ID: TCP23) was assessed by the qualitative solubility determination approach. To 5.6 mg of Pho1, water was added in steps of 50 μl until the material was dissolved (Exp. ID: SAS2). Visual inspection by the naked eye was used to decide whether complete dissolution occurred. After the addition of 700 μl water, Pho1 was not dissolved in water at room temperature whereas after a subsequent addition of 200 μl water (900 μl in total), the material completely dissolved.
The solubility of Mao1 in water was determined by adding small aliquots of water to the material until it was dissolved.

[3] = Dynamic Vapor Sorption (DVS) hygroscopicity; conditions: for Water uptake: 25° C./80% RH; for Hygroscopicity classification: European Pharmacopoeia classification, water uptake at 25° C./80% RH; for Solid form recovered after DVS analysis: XRPD after sorption-desorption-sorption cycle
Procedure: (§1) Differences in hygroscopicity (moisture uptake) of the various forms of a solid material provided a measure of their relative stability at increasing relative humidity. Moisture sorption isotherms of small samples were obtained using a DVS-1 system from Surface Measurement Systems (London, UK); this instrument is suitable for use with a few milligrams of sample, with an accuracy of 0.1 μg. The relative humidity was varied during sorption-desorption-sorption (45-95-0-45% RH) at a constant temperature of 25° C. Weight equilibration per step was set at dm/dt <0.0002 for a minimum of 1 hour or maximum of 6 hours. Afterwards the sample was measured by HT-XRPD.
The hygroscopicity was classified according to the European Pharmacopoeia Hygroscopicity classification.
as §1, with “(40-95-0-40%” for “(45-95-0-45%”
as §1, with “use with as little as a few” for “use with a few”
The hygroscopicity of Mao1 was determined by DVS. The powder was exposed to a RH profile consisting of sorption/desorption/sorption cycles (40-95-0-40% RH) performed at 25° C. The water vapor uptake gained during the sorption half-cycle was 0.75%.

[4] = 0.2 M phosphate buffer pH 6, 37° C., 4 hours
[5] = 0.2M phosphate buffer pH 6, 37° C., 4 hours, about 1 mg salt in 1 mL
[6] = 0.2M phosphate buffer pH 6, 37° C., 4 hours, about 5 mg salt in 1 mL
[7] = 0.2 M phosphate buffer pH 6, 37° C., 4 hours, XRPD
[8] = 0.2M phosphate buffer pH 6, 37° C., about 1 mg salt in 1 mL
[9] = 0.2M phosphate buffer pH 6, 37° C., about 5 mg salt in 1 mL
[10] = water, 37° C., 4 hours, about 1 mg salt in 1 mL
[11] = water, 37° C., 4 hours, about 5 mg salt, up to 1 mL
[12] = water, 37° C., about 1 mg salt in 1 mL
[13] = water, 37° C., about 5 mg salt, up to 1 mL

Compound	Dissolution behaviour in aqueous media (gelling, wettability) [1]	Behaviour upon addition of water (gel formation) [2]	Solubility in phosphate buffer [1, 4]	solubility [1, 5]	solubility [1, 6] [µg/mL]	Solids recovered / salt dissociation after solubility determination in buffer [1, 7]	Form (4 h) of residual solid [1, 8]	pH (4 h) [1, 8]	Form (4 h) of residual solid [1, 9]	pH (4 h) [1, 9]	solubility [1, 10]	solubility [1, 11]	pH (4 h) [1, 12]	pH (4 h) [1, 13]	Water uptake ([3]; DVS)	Hygroscopicity classification [3]	Solid form recovered after DVS analysis [3]	also measured
CN1CC[C@H](c2c(O)cc(O)c3c(=O)cc(-c4ccc(C(F)(F)F)cc4Cl)oc23)[C@H]1CO (stereo in doubt) [voruciclib malonate, 2-(2-chloro-4-(trifluoromethyl)phenyl)-5,7-dihydroxy-8-((2S,3R)-2-(hydroxymethyl)-1-methylpyrrolidin-3-yl)-4H-chromen-4-one malonate salt]	no gelling	gelling was not observed when exposed to water	–	–	–	–	–	–	–	–	–	–	–	–	–	–	–	Solubility pH 6 [1, 4]: 0.07 mg/mL; Solubility water ([1]; water, 37° C., 4 hours): 4400 µg/mL; solubility at 4 h ([1]; water, 37 °C, thermodynamic from solid, secondary salt screen (FIG. 290)): > 5000 µg/mL
CN1CC[C@@H](c2c(O)cc(O)c3c(=O)cc(-c4ccc(C(F)(F)F)cc4Cl)oc23)[C@@H]1CO.O=C(O)CC(=O)O [Mao1]	there was no gelling or increase in viscosity observed	no gel-formation was observed; also recorded: gel formation was not observed	70 µg/mL	20 µg/mL	70	dissociation of the salt occurred	Free	6.2	Free	5.8	(0.9) mg/mL	4440 µg/mL	4.1	3.5	0.15%	non-hygroscopic	No solid form conversion was observed	Solubility in water ([1]; water, 37° C., 4 hours): 4400 µg/mL; Solids recovered after solubility determination in water ([1]; water, 37° C., 4 hours, XRPD): the solids recovered were still identical to Mao1; Form (4 h) of residual solid [1, 13]: Mao1; Solubility in water at room temperature ([2]; qualitative determination by adding aliquots of water, visual): approximately 13 mg/ml; Water uptake gained during the first sorption half-cycle ([3]; DVS, 25° C., 40 to 95% RH): 0.75%
CN1CCC(c2c(O)cc(O)c3c(=O)cc(-c4ccc(C(F)(F)F)cc4Cl)oc23)C1CO.O=P(O)(O)O (stereo not drawn) [Pho1]	no gelling was observed	became a gel when exposed to water; also recorded: became a gel upon addition of water; also recorded: became a gel-like material	about 0.03 mg/mL	hazy	30	salt had dissociated in the buffer solution	Free	6.0	Free	5.8	(0.9) mg/mL	(5.2) mg/mL	4.6	3.7	approximately 5.0%	moderately hygroscopic	Pho1 was recovered	Stability against variable humidity conditions ([3]; between 0-95% RH): stable against variable humidity conditions

— patent US12421216B2, “Voruciclib polymorphs and methods of making and using thereof” (MEI PHARMA, INC., priority 2019, dated 2025)
